Measurements published in US9149426B2, “Nanoparticle composition and methods to make and use the same” (priority 2012, dated 2015).

Experiments:
[1] = test system: Xenopus laevis frogs; assay: Effective dose in in vitro studies using frogs
[2] = test system: HEK-293 cells; assay: In vitro cytotoxicity, MTT assay; settings: 1% Triton-X 100, 80 μM H2O2, 48 h
[3] = at 25° C.; cited from earlier work
[4] = Solubility of organic phase solvents in water or poly(ortho ester) polymer

Compound: asialo, galactosylated, triantennary (NA3) oligosaccharides
- Effective dose in vitro [1]: 1 nM

Compound: Triton-X 100
- Cell viability of positive controls [2]: 5%

Compound: CCOC(C)=O [Ethyl acetate]
- Solubility in water [3]: (8.7% (w/w)

Compound: ClCCl [Dichloromethane]
- Solubility in water [3]: Immiscible (1.6% (w/w)
- Solubility of POE (poly(ortho ester) polymer) in the organic phase solvent [4]: Excellent solvent

Compound: CC(C)=O [Acetone]
- Solubility in water [3]: Very soluble
- Solubility of POE (poly(ortho ester) polymer) in the organic phase solvent [4]: Immiscible

Compound: OO [H2O2]
- Cell viability of positive controls [2]: 8%
